Counter-ions that a name gives are not always drawn. Like-named read-outs stand apart in the source and are kept apart here.
What was measured:
[1] = test system: mice; experiment: Potentiation of the Effects of 5-Hydroxytryptophan (anti-convulsant activity of 5 HTP, electroshock threshold); assay type: in vivo; conditions: for ED100: Mus musculus, po, dose increasing the elevation of electroshock threshold due to 5HTP by 100%
Experimental: (§1) The ability of the compounds of this invention to potentiate catecholaminesand 5-hydroxytryptamine was examined using the test methods (1) and (2) below, respectively. These tests are indicative of anti-depressant activity.
(2) Potentiation of the Effects of 5-Hydroxytryptophan
5 HTP Potentiation was measured in mice using the potentiation of the anti-convulsant activity of 5 HTP originally-described by Buus Lassen J., (1975), Psychopharmacol, 42, 21-6. Mice (10/group) were pretreated with the compounds under investigation and 30' later received a sub-threshold level dose of L-5 HTP (100 mg/kg ip). 30 minutes later they were subjected to electroshock and the shock level (in V) required to cause tonic extensor spasm in 50% of the mice determined for all groups.
The dose of compounds required to increase the elevation of electroshock threshold due to 5HTP by 100% is determined graphically.

[2] = test system: mice; experiment: Prevention of Reserpine-induced Hypothermia; assay type: in vivo; conditions: Mus musculus, p.o., oral doses 24, 18 and 2 hours before 1 mg/kg i.v. reserpine, active = significant at p<0.05, read-out: Res Prev (lowest active dose)
Text: as §1
(1) Prevention of Reserpine-induced Hypothermia
The method of Spencer in "Anti-Depressant Drugs: Proceedings of the 1st International Symposium", p 184-204. Ed. Garattini, S and Dukes MNG, Excerpta Med Foundation, Amsterdam, 1967, was used. Groups of 5 mice were given oral doses of the test compound 24 hours, 18 hours and 2 hours before an intravenous injection of 1 mg/kg reserpine base. The oral temperatures of the mice were taken immediately before the administration of the reserpine and 6 hours afterwards. Mean temperatures of groups given test compounds are compared with the mean temperatures of the reserpinised controls using the Students t test. Compounds causing significant difference at the level p<0.05 are considered active at that dose.

[3] = biological target: T1, A-form of monoamine oxidase (Homo sapiens, UniProt P21397); experiment: Monoamine oxidase A inhibition (other initial tests); assay type: biochemical
T1 sequence (P21397 1-527): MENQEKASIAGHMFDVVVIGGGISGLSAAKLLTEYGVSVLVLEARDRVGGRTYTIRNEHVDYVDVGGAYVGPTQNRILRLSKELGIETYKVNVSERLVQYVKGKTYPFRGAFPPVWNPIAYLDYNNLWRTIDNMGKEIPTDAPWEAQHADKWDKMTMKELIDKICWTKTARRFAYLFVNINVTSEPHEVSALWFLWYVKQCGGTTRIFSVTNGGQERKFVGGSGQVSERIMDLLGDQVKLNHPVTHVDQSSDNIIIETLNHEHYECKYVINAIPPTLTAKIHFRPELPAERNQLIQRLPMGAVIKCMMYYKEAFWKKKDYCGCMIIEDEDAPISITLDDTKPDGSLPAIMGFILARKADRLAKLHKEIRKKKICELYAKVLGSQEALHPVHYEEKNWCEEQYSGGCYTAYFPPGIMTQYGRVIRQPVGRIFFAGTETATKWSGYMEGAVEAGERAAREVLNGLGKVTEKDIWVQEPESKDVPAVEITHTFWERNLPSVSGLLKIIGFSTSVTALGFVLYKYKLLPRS

[4] = Acute toxicity (LD50) in mice; conditions: mouse, in vivo, po
[5] = test system: mice; experiment: Acute toxicity (LD50) in mice; conditions: initial tests
[6] = read-out: 5-HTP Potentiation, ED100

Molecule	ED100 [1, 6] [mg/kg]	minimal effective dose [2] [mg/kg]	other results
Cc1nccn1CCOc1cc(Cl)c(Cl)c(Cl)c1 [Example 17, 1-(3',4',5'-Trichlorophenoxyethyl)-2-methylimidazole maleate]	70	–	–
Cc1nccn1CCOc1ccccc1 [Example 20, 1-(2'-Phenoxyethyl)-2-methylimidazole]	10	–	–
Cc1nccn1CCOc1ccc(F)cc1 [Example 4]	–	100	ED100 ([1]; read-out: 5 HTP pot ED100): 1 mg/kg
Cc1nccn1CCOc1cc(Cl)ccc1Cl [Example 13, l-(2',5'-Dichlorophenoxyethyl)-2-methylimidazole maleate]	19	–	–
Cc1nccn1CCCOc1ccc(Cl)cc1 [Example 2, 1-(4'-Chlorophenoxypropyl)-2-methyl imidazole]	–	3	ED100 ([1]; read-out: 5 HTP pot ED100): 3 mg/kg
Cc1nccn1CCOc1ccc(Cl)cc1Cl [Example 8, 1-(2',4'-Dichlorophenoxyethyl)-2-methylimidazole]	–	10	ED100 ([1]; read-out: 5 HTP pot ED100): 20 mg/kg
COc1ccc(OCCn2ccnc2C)cc1 [Example 5]	–	10	–
1-(2',4'-Dichlorophenoxyethyl)-4(5)-methylimidazole maleate [Example 22]	–	–	5-HTP Potentiation, % Change of control at x mg/kg, p.o. ([1]; at 30 mg/kg p.o.): 138% at 30
Cc1nccn1CCOc1ccc(Br)cc1Cl [Example 16, l-(4'-Bromo-2'-chlorophenoxyethyl)-2-methylimidazole maleate]	–	–	5-HTP Potentiation, % Change of control at x mg/kg, p.o. ([1]; at 30 mg/kg p.o.): 96% at 30
Cc1nccn1CCOc1cccc(Cl)c1Cl [Example 12, 1-(2',3'-Dichlorophenoxyethyl)-2-methylimidazole maleate]	28	–	–
Cc1nccn1CCCOc1ccc(F)cc1 [Example 9]	–	–	ED100 ([1]; read-out: 5 HTP pot ED100): 10 mg/kg
Cc1nccn1CCCCOc1ccc(Cl)cc1 [Example 3, 1-(4'-Chlorophenoxybutyl)-2-methyl imidazole]	–	100	ED100 ([1]; read-out: 5 HTP pot ED100): 16 mg/kg
Cc1nccn1CCOc1ccc(Br)cc1Br.O=C(O)/C=C\C(=O)O [Example 15, 1-(2',4'-Dibromophenoxyethyl)-2-methylimidazole maleate]	34	–	–
Cc1nccn1CCOc1cccc(C(F)(F)F)c1 [Example 21, 1-(3'-Trifluoromethylphenoxyethyl)-2-methylimidazole maleate]	26	–	–
Cc1cc(OCCn2ccnc2C)cc(C)c1Cl [Example 19, 1-(4'-Chloro-3',5'-dimethylphenoxyethyl)-2-methylimidazole maleate]	–	–	5-HTP Potentiation, % Change of control at x mg/kg, p.o. ([1]; at 100 mg/kg p.o.): 77% at 100
Cc1nccn1CCOc1c(Cl)cccc1Cl [Example 14, 1-(2',6'-Dichlorophenoxyethyl)-2-methylimidazole maleate]	9	–	–
Cc1nccn1CCOc1ccc(Cl)cc1Cl [formula (II)"]	–	–	inhibitor of the A-form of monoamine oxidase [3]: selective and reversible inhibitor; LD50 [4]: > 900 mg/kg; level of toxicity [5]: low level of toxicity
Cc1cc(Cl)ccc1OCCn1ccnc1C [Example 18, 1-(4'-Chloro-2'-methylphenoxyethyl)-2-methylimidazole maleate]	10	–	–
Cc1nccn1CCOc1cccc(Cl)c1 [Example 6]	–	100	ED100 ([1]; read-out: 5 HTP pot ED100): 7 mg/kg
CCc1nccn1CCOc1ccc(Cl)cc1Cl [Example 23, 1-(2',4'-Dichlorophenoxyethyl)-2-ethylimidazole maleate]	53	–	–
Cc1nccn1CCOc1ccc(Cl)c(Cl)c1 [Example 10, 1-(3',4'-Dichlorophenoxyethyl)-2-methylimidazole]	12	–	–
Cc1nccn1CCOc1ccccc1Cl [Example 7]	–	100	–
Cc1nccn1CCOc1cc(Cl)cc(Cl)c1.O=C(O)/C=C\C(=O)O [Example 11, 1-(3',5'Dichlorophenoxyethyl)-2-methylimidazole maleate]	18	–	–
Cc1nccn1CCOc1ccc(Cl)cc1 [Example 1, 1-(4'-Chlorophenoxyethyl)-2-methyl imidazole]	–	10	ED100 ([1]; read-out: 5 HTP pot ED100): 5 mg/kg
